According to US20080025938A1, “Method and composition for permanently shaping hair” (priority 2006, published 2008):

Assays:
[1] = versus N-methylmercaptoacetamide and N-hydroxyethylmercaptoacetamide; cited from earlier work
[2] = test system: hair; assay: Permanent waving of hair on curlers with the composition, then oxidative fixing; assessed by hairdresser and customer; format: in vivo, human; details: used alone as the hair keratine reducing agent
Text: The method of permanent shaping of human hair according to the invention is defined as: A method for permanent shaping of hair, said method comprising the steps of: • (a) putting the hair in a desired shape; • (b) before and/or after the hair is put in the desired shape, applying an amount of a permanent shaping composition to the hair, and allowing the permanent shaping composition to act on the hair for a predetermined acting time sufficient for the permanent shaping of the hair; • (c) subsequently rinsing the hair with water or applying an intermediate treatment agent; • (d) performing an oxidative post-treatment of the hair; • (e) after the oxidative post-treatment, rinsing the hair with water and drying the hair, wherein said permanent shaping composition is a composition according to any-one of claims 1 to 13. Details of the method are given as follows. First the hair (which is washed and towel-dried) is separated into multiple sections and then these sections are rolled onto curlers. […] After the rolling on curlers is finished, the curlers are thoroughly wetted down using the required quantity of the permanent shaping composition, preferably about 60 g to about 120 g. […] The fixing composition is used in a quantity of about 50 g to about 200 g, preferably about 80 g to about 100 g, depending on hair thickness and length. […]

O=C(CS)NCCCO [N-(3′-hydroxypropyl)-2-mercapto-acetamide]
sensitization rates [1]: substantially lower sensitization rates | fastness of the permanent shaped hair to humidity, particularly sweat [2]: not sufficient
